Assay [1] deals with PBP2a (Staphylococcus aureus, UniProt P07944). Description: PBP2a deacylation rate, BOCILLIN FL as reporter. The following applies: deacylation of PBP2a. It counts as biochemical, MRSA. As to the method:
Α = A + ∆ε E (k∗ ∕ (k∗ + k∗)(1 − exp (−(k∗ + k∗)t)) + k N ∆ε Ε t (2)
Where kn* is the pseudo-first-order rate constant for acylation by nitrocefin at the concentration (N0) employed (0.1 mM), ki* the pseudo-first-order rate constant for the reaction of PBP2a with the WYBQ-4, E0 the initial enzyme concentration (2.5 µM), and k0 the second-order rate constant of nonspecific nitrocefin hydrolysis. Second-order rate constants (ki) for acylation were calculated from a linear least-squares fit to a plot of the apparent first-order rate constants (ki*) against the concentration of WYBQ-4. All plots were linear for the concentrations of WYBQ-4 used.
Determination of dissociation equilibrium constants (Ks) of WYBQ-4 and PBP2a The dissociation equilibrium constant (Ks) of PBP2a with WYBQ-4 were determined by the BOCILLIN method (2), as previously described. […] Samples (30 μL) were loaded onto a 10% SDS-polyacrylamide gel, which was developed and then observed using a fluorescence imager to calculate the grayscale curve. […]
The deacylation rate constants for wild-type PBP2a were determined using BOCILLIN FL as a reporter molecule. […]
The mixture was diluted 5 times with buffer and incubated at room temperature for different time intervals. […] Grayscale analysis was performed by imageJ and the rate constant k3 for the deacylation reaction of WYBQ-4 with PBP2a was determined based on eqn (3): […]

For assay [2], the system named is clinical isolate SA1B2B. Description: Mouse systemic infection model. Type of assay: in vivo, mice. The following applies: different doses. How it is done: (§1) The S. aureus-induced systemic infection model of mice (6-week-old female C57BL/6J mice) was established as previously described ([46]). […] The mice infected in the same way were treated with physiological saline as an infection control group. The mock group was not infected with S. aureus, and the 7-day mortality of the mice in each group was calculated.

The subject of assay [3] is MRSA USA300. The assay is described as follows: Mouse systemic infection model. Type of assay: in vivo, mice. To be noted: USA300 5 × 10^7 CFU, 150 mg/kg, tail intravenous injection at 0 and 3 h, 7-day. How it is done:
as §1

Assay [4] relates to clinical isolate SA28. Description: Mouse systemic infection model. It counts as in vivo, mice. The following applies: different doses. As to the method: as §1

PBP2a, sequence (P07944 whole entry): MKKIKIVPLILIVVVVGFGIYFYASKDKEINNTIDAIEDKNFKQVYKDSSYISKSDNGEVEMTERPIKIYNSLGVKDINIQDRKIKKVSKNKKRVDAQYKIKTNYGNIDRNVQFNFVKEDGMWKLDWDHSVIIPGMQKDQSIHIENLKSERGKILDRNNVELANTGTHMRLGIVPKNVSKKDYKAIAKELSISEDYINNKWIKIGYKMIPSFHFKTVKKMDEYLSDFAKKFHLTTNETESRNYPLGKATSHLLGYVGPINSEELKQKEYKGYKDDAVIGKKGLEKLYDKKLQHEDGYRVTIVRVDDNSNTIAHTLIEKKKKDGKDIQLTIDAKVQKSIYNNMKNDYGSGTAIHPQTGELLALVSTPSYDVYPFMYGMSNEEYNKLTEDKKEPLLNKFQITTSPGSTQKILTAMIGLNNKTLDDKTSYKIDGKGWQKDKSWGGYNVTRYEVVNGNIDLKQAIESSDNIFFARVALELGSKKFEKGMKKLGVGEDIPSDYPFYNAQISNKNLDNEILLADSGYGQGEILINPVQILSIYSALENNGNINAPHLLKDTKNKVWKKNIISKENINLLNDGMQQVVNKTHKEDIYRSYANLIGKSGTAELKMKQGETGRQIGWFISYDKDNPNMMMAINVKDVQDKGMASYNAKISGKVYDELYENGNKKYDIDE

In assay [1], `C#CCO[C@@]1(NC(=O)CSc2cccc(C)c2)C(=O)N2C(C(=O)O)=C(CSc3nnnn3C)CSC21` (stereo partly shown) [WYBQ-4] gave a k3 of 11 ± 1.32 s^–1 × 10^6. Besides, the “protection in systemic infection” value in assay [2] and in assay [4] was “had a protective effect” throughout. Moreover, the survival rate in assay [3] was found to be 100%.

(Values after paper PMC9603521, “WYBQ-4: a New Bactericidal Agent against Methicillin-Resistant Staphylococcus aureus” (Microbiology Spectrum, 2022).)
